According to patent US10882869B2, “Condensed heterocyclic compounds and pesticides” (NISSAN CHEMICAL CORPORATION, priority 2015, dated 2021):

Key:
Type in all cases: in vivo
Spodoptera litura = assay: Insecticidal test on Spodoptera litura (cabbage leaves soaked); settings: 144 h, 500 ppm solution, 3rd-instar larvae, 6 days after, 25° C.
Protocol: (§1) Leaves of cabbage were soaked in the solutions for about 10 seconds. After the soaking, the leaves were dried in air and placed in dishes. In each dish, five 3rd-instar larvae of Spodoptera litura were released, and the dishes were covered with lids and placed in an incubator at 25° C. 6 Days after, dead insects in the dishes were counted, and the mortality was calculated by using the same equation as in Test Example 1. The test was carried out in duplicate.

Plutella xylostella [1] = assay: Insecticidal test on Plutella xylostella (cabbage leaves soaked); settings: 144 h, 500 ppm solution, 3rd-instar larvae, 6 days after, 25° C.
Protocol: as §1, with “Plutella xylostella” for “Spodoptera litura”

Plutella xylostella [2] = assay: Soil irrigation test on Plutella xylostella; settings: 144 h, 500 ppm solution, 10 ml soil irrigation of cabbage seedlings, leaves picked 5 days after, 3rd-instar larvae, 6 days after
Protocol: The soil around the bases of cabbage seedlings (at the 2.5-leaf stage) planted in plastic cups was irrigated with 10 ml of the solutions. After the irrigation, the cabbage seedlings were placed in a greenhouse. 5 Days after the irrigation, leaves of cabbage were picked and placed in dishes. In each dish, five 3rd-instar larvae of Plutella xylostella were released, and the dishes were covered with lids and placed in an incubator at 25° C. 6 Days after, dead insects in the dishes were counted, and the mortality was calculated by using the same equation as in Test Example 1. The test was carried out in duplicate.

Ctenocephalides felis = assay: Test on the effect on Ctenocephalides felis (thin film in glass container); settings: 96 h, application dose 10 μg/cm^2, adults, 4 days after release, 25° C.
Protocol: 350 μl of the solutions were applied to the bottoms and the side walls of glass containers with an inner wall surface area of 35 cm^2, and acetone was volatilized to prepare thin films of the compounds on the inner walls of the glass containers. Since the inner wall surface area of each glass container was 35 cm^2, the application dose was 10 μg/cm^2.
To each glass container, five adults (male and female) of Ctenocephalides felis were released, and the containers were covered with lids and placed in an incubator at 25° C. 4 Days after the release of the fleas, dead fleas were counted, and the mortality was calculated by using the same equation as in Test Example 1.

Myzus persicae = assay: Insecticidal test on Myzus persicae (cabbage leaf spray); settings: 144 h, 500 ppm solution sprayed (2.5 mg/cm^2), apterous adults on cabbage leaves, 6 days after, 25° C.
Protocol: Wet absorbent cotton was laid on glass dishes having an inner diameter of 3 cm, and covered with leaves of cabbage cut into circles of the same diameter, and 4 apterous adults of Myzus persicae were released. […] The solutions were sprayed from a rotary spray tower (2.5 mg/cm^2), and the dishes were covered with lids and placed in an incubator at 25° C. 6 Days after, dead insects were counted, and the mortality was calculated by using the same equation as in Test Example 1. The test was carried out in duplicate.

Nilaparvata lugens [3] = assay: Insecticidal test on Nilaparvata lugens (rice sheaths soaked); settings: 144 h, 500 ppm solution, 3rd-instar larvae, 6 days after, 25° C.
Protocol: Rice sheaths were soaked in the solutions for about 10 seconds. After the soaking, the rice sheaths were dried in air and put in test tubes. In each tube, five 3rd-instar larvae of Nilaparvata lugens were released, and the tubes were capped with sponge and placed in an incubator at 25° C. 6 Days after, dead insects in the test tubes were counted, and the mortality (%) (the number of dead insects÷the number of released insects×100) was calculated. The test was carried out in duplicate.

Nilaparvata lugens [4] = assay: Systemic insecticidal test on Nilaparvata lugens (rice seedling root dip); settings: 20 ppm solution, rice seedling roots dipped 7 days, 3rd-instar larvae, 6 days after release, 25° C.
Protocol: 7 Days after, the rice seedlings were picked and put in test tubes, and in each tube, five 3rd-instar larvae of Nilaparvata lugens were released, and the tubes were capped with sponge and placed in an incubator at 25° C. 6 Days after the release of the insects, dead insects were counted, and the mortality (%) (the number of dead insects÷the number of released insects×100) was calculated. The test was carried out in duplicate.

CCS(=O)(=O)c1c(-n2cc3ncc(C(F)(F)F)cc3n2)nc2cc(C(F)(F)F)ccn12 [1-10-002a, 2-[3-(ethylsulfonyl)-7-(trifluoromethyl)imidazo[1,2-a]pyridin-2-yl]-6-(trifluoromethyl)-2H-pyrazolo[4,3-b]pyridine]
mortality at 500 ppm (Spodoptera litura): ≥ 90%
mortality at 500 ppm (Plutella xylostella [1]): ≥ 90%
pest or weed control at 500 ppm (Plutella xylostella [2]): ≥ 90%
mortality at 10 µg/cm2 (Ctenocephalides felis): ≥ 50%
mortality at 500 ppm (Myzus persicae): ≥ 90%

CCS(=O)(=O)c1c(-c2nc3cc(C(F)(F)F)cnc3n2C)nc2cnc(C(F)(F)F)cn12 [1-1-029a, 2-[3-(ethylsulfonyl)-6-(trifluoromethyl)imidazo[1,2-a]pyrazin-2-yl]-3-methyl-6-(trifluoromethyl)-3H-imidazo[4,5-b]pyridine]
mortality at 500 ppm (Spodoptera litura): ≥ 90%
mortality at 500 ppm (Plutella xylostella [1]): ≥ 90%
pest or weed control at 500 ppm (Plutella xylostella [2]): ≥ 90%
mortality at 10 µg/cm2 (Ctenocephalides felis): ≥ 50%

CCS(=O)(=O)c1c(-c2cn3cc(C(F)(F)F)ncc3n2)nc2ccc(C(F)(F)F)cn12 [1-6-002a, 2-[3-(ethylsulfonyl)-6-(trifluoromethyl)imidazo[1,2-a]pyridin-2-yl]-6-(trifluoromethyl)imidazo[1,2-a]pyrazine]
mortality at 500 ppm (Spodoptera litura): ≥ 90%
mortality at 500 ppm (Plutella xylostella [1]): ≥ 90%
mortality at 500 ppm (Myzus persicae): ≥ 90%

CCS(=O)(=O)c1c(-c2nc3cc(C(F)(F)F)nc(C)c3n2C)nc2ccc(C(F)(F)F)cn12 [1-8-003a, 2-[3-(ethylsulfonyl)-6-(trifluoromethyl)imidazo[1,2-a]pyridin-2-yl]-3,4-dimethyl-6-(trifluoromethyl)-3H-imidazo[4,5-c]pyridine]
mortality at 500 ppm (Spodoptera litura): ≥ 90%
pest or weed control at 500 ppm (Plutella xylostella [2]): ≥ 90%
mortality at 10 µg/cm2 (Ctenocephalides felis): ≥ 50%

CCS(=O)(=O)c1c(-n2cc3cnc(C(F)(F)F)cc3n2)nc2cc(C(F)(F)F)ccn12 [1-11-001a, 2-[3-(ethylsulfonyl)-7-(trifluoromethyl)imidazo[1,2-a]pyridin-2-yl]-6-(trifluoromethyl)-2H-pyrazolo[4,3-c]pyridine]
mortality at 500 ppm (Spodoptera litura): ≥ 90%
mortality at 500 ppm (Plutella xylostella [1]): ≥ 90%
pest or weed control at 500 ppm (Plutella xylostella [2]): ≥ 90%
mortality at 500 ppm (Nilaparvata lugens [3]): ≥ 90%
mortality at 10 µg/cm2 (Ctenocephalides felis): ≥ 50%
mortality at 20 ppm (Nilaparvata lugens [4]): ≥ 90%
mortality at 500 ppm (Myzus persicae): ≥ 90%

CCS(=O)(=O)c1c(-c2cn3ncc(C(F)(F)F)cc3n2)nc2cc(C(F)(F)F)ccn12 [1-4-001a, 2-[3-(ethylsulfonyl)-7-(trifluoromethyl)imidazo[1,2-a]pyridin-2-yl]-7-(trifluoromethyl)imidazo[1,2-b]pyridazine]
mortality at 500 ppm (Spodoptera litura): ≥ 90%
mortality at 500 ppm (Plutella xylostella [1]): ≥ 90%
pest or weed control at 500 ppm (Plutella xylostella [2]): ≥ 90%
mortality at 10 µg/cm2 (Ctenocephalides felis): ≥ 50%
mortality at 500 ppm (Myzus persicae): ≥ 90%

CCS(=O)(=O)c1c(-c2nc3cc(S(=O)(=O)C(F)(F)F)ccc3o2)nc2ccc(C(F)(F)F)cn12 [1-2-001a, 2-[3-(ethylsulfonyl)-6-(trifluoromethyl)imidazo[1,2-a]pyridin-2-yl]-5-[(trifluoromethyl)sulfonyl]benz[d]oxazole]
mortality at 500 ppm (Spodoptera litura): ≥ 90%
mortality at 500 ppm (Plutella xylostella [1]): ≥ 90%
mortality at 500 ppm (Nilaparvata lugens [3]): ≥ 90%
mortality at 10 µg/cm2 (Ctenocephalides felis): ≥ 50%
mortality at 500 ppm (Myzus persicae): ≥ 90%

CCS(=O)(=O)c1c(-c2nc3cc(C(F)(F)C(F)(F)F)ncn3c2Br)nc2ccc(C(F)(F)F)cn12 [1-3-010a, 3-bromo-2-[3-(ethylsulfonyl)-6-(trifluoromethyl)imidazo[1,2-a]pyridin-2-yl]-7-(perfluoroethyl)imidazo[1,2-c]pyrimidine]
mortality at 500 ppm (Spodoptera litura): ≥ 90%
mortality at 10 µg/cm2 (Ctenocephalides felis): ≥ 50%
mortality at 500 ppm (Myzus persicae): ≥ 90%

CCSc1c(-n2cc3cnc(C(F)(F)F)cc3n2)nc2cc(C(F)(F)F)ccn12 [1-11-001b, 2-[3-(ethylthio)-7-(trifluoromethyl)imidazo[1,2-a]pyridin-2-yl]-6-(trifluoromethyl)-2H-pyrazolo[4,3-c]pyridine]
mortality at 500 ppm (Spodoptera litura): ≥ 90%
mortality at 500 ppm (Plutella xylostella [1]): ≥ 90%
mortality at 500 ppm (Nilaparvata lugens [3]): ≥ 90%
mortality at 10 µg/cm2 (Ctenocephalides felis): ≥ 50%
mortality at 500 ppm (Myzus persicae): ≥ 90%

CCS(=O)(=O)c1c(-c2nc3cc([S+]([O-])C(F)(F)F)ccc3o2)nc2ccc(C(F)(F)F)cn12 (stereo not drawn) [1-2-002a, 2-[3-(ethylsulfonyl)-6-(trifluoromethyl)imidazo[1,2-a]pyridin-2-yl]-5-[(trifluoromethyl)sulfinyl]benz[d]oxazole]
mortality at 500 ppm (Spodoptera litura): ≥ 90%
mortality at 500 ppm (Plutella xylostella [1]): ≥ 90%
mortality at 500 ppm (Nilaparvata lugens [3]): ≥ 90%
mortality at 20 ppm (Nilaparvata lugens [4]): ≥ 90%
mortality at 500 ppm (Myzus persicae): ≥ 90%

CCS(=O)(=O)c1c(-c2nc3cc(C(F)(F)F)cnc3n2C)nc2sc(C(F)(F)F)cn12 [2-1-001a, 5-(ethylsulfonyl)-6-[3-methyl-6-(trifluoromethyl)-3H-imidazo[4,5-b]pyridin-2-yl]-2-(trifluoromethyl)imidazo[2,1-b]thiazole]
mortality at 500 ppm (Spodoptera litura): ≥ 90%
mortality at 500 ppm (Plutella xylostella [1]): ≥ 90%
mortality at 500 ppm (Nilaparvata lugens [3]): ≥ 90%
mortality at 10 µg/cm2 (Ctenocephalides felis): ≥ 50%
mortality at 500 ppm (Myzus persicae): ≥ 90%

CCS(=O)(=O)c1c(-c2cn3c(C)nc(C(F)(F)C(F)(F)F)cc3n2)nc2ccc(C(F)(F)F)cn12 [1-3-007a, 2-[3-(ethylsulfonyl)-6-(trifluoromethyl)imidazo[1,2-a]pyridin-2-yl]-5-methyl-7-(perfluoroethyl)imidazo[1,2-c]pyrimidine]
mortality at 500 ppm (Spodoptera litura): ≥ 90%
mortality at 500 ppm (Plutella xylostella [1]): ≥ 90%
mortality at 500 ppm (Nilaparvata lugens [3]): ≥ 90%
mortality at 10 µg/cm2 (Ctenocephalides felis): ≥ 50%
mortality at 20 ppm (Nilaparvata lugens [4]): ≥ 90%
mortality at 500 ppm (Myzus persicae): ≥ 90%

CCS(=O)(=O)c1c(-c2nc3cc(C(F)(F)F)cnc3n2C)nc2cc(C(F)(F)F)c(Br)cn12 [1-1-023a, 2-[6-bromo-3-(ethylsulfonyl)-7-(trifluoromethyl)imidazo[1,2-a]pyridin-2-yl]-3-methyl-6-(trifluoromethyl)-3H-imidazo[4,5-b]pyridine]
mortality at 500 ppm (Spodoptera litura): ≥ 90%
mortality at 500 ppm (Plutella xylostella [1]): ≥ 90%
mortality at 500 ppm (Nilaparvata lugens [3]): ≥ 90%
mortality at 10 µg/cm2 (Ctenocephalides felis): ≥ 50%
mortality at 500 ppm (Myzus persicae): ≥ 90%

CCSc1c(-n2cc3ncc(C(F)(F)F)cc3n2)nc2cc(C(F)(F)F)ccn12 [1-10-002b, 2-[3-(ethylthio)-7-(trifluoromethyl)imidazo[1,2-a]pyridin-2-yl]-6-(trifluoromethyl)-2H-pyrazolo[4,3-b]pyridine]
mortality at 500 ppm (Spodoptera litura): ≥ 90%
mortality at 500 ppm (Plutella xylostella [1]): ≥ 90%
mortality at 10 µg/cm2 (Ctenocephalides felis): ≥ 50%
mortality at 500 ppm (Myzus persicae): ≥ 90%

CCS(=O)(=O)c1c(-c2nc3cc(SC(F)(F)F)cnc3n2C)nc2cc(C(F)(F)F)ccn12 [1-1-027a, 2-[3-(ethylsulfonyl)-7-(trifluoromethyl)imidazo[1,2-a]pyridin-2-yl]-3-methyl-6-((trifluoromethyl)thio)-3H-imidazo[4,5-b]pyridine]
mortality at 500 ppm (Spodoptera litura): ≥ 90%
mortality at 500 ppm (Plutella xylostella [1]): ≥ 90%
mortality at 10 µg/cm2 (Ctenocephalides felis): ≥ 50%
mortality at 500 ppm (Myzus persicae): ≥ 90%

CCS(=O)(=O)c1c(-c2cn3cc(C(F)(F)F)sc3n2)nc2ccc(C(F)(F)F)cn12 [1-12-001a, 6-[3-(ethylsulfonyl)-6-(trifluoromethyl)imidazo[1,2-a]pyridin-2-yl]-2-(trifluoromethyl)imidazo[2,1-b]thiazole]
mortality at 500 ppm (Spodoptera litura): ≥ 90%
mortality at 500 ppm (Plutella xylostella [1]): ≥ 90%
mortality at 10 µg/cm2 (Ctenocephalides felis): ≥ 50%
mortality at 500 ppm (Myzus persicae): ≥ 90%

CCS(=O)(=O)c1c(-c2cn3ccc(C(F)(F)F)cc3n2)nc2ccc(C(F)(F)F)cn12 [1-5-002a, 3-(ethylsulfonyl)-6,7′-bis(trifluoromethyl)-2,2′-biimidazo[1,2-a]pyridine]
mortality at 500 ppm (Spodoptera litura): ≥ 90%
mortality at 500 ppm (Plutella xylostella [1]): ≥ 90%
mortality at 500 ppm (Nilaparvata lugens [3]): ≥ 90%
mortality at 10 µg/cm2 (Ctenocephalides felis): ≥ 50%
mortality at 500 ppm (Myzus persicae): ≥ 90%
